Values joined by “and” are separate entries in the source; they are usually repeats but may differ in a detail not shown here. Equal entries are not always repeated.
What was measured:
[1] = target: 140 purified human kinases (Homo sapiens, UniProt P17252); assay: Kinase inhibition screen, cell-free 33P ATP assay at 10 μM; type: biochemical; conditions: PKCa
Experimental: (§1) [L2Cu3]^6+ and [L2Zn3]^6+ were submitted to the MRC Protein Phosphorylation and Ubiquitination Unit International Centre for Kinase Profiling (University of Dundee) and tested in duplicate (at 10 μM) against a series of 140 purified human kinases in a cell-free kinase assay using ^33P ATP[55],[56]. The kinase gene IDs from the screen were then translated into common IDs (HGNC symbol) using biomaRt package[57],[58] in R[59] and R Studio[60] and used as input to the KinMap programme.

[2] = target: 140 purified human kinases (Homo sapiens, UniProt P31749); assay: as above; type: biochemical; conditions: PKBa
Chain of 140 purified human kinases (Homo sapiens, UniProt P31749) (P31749 whole entry): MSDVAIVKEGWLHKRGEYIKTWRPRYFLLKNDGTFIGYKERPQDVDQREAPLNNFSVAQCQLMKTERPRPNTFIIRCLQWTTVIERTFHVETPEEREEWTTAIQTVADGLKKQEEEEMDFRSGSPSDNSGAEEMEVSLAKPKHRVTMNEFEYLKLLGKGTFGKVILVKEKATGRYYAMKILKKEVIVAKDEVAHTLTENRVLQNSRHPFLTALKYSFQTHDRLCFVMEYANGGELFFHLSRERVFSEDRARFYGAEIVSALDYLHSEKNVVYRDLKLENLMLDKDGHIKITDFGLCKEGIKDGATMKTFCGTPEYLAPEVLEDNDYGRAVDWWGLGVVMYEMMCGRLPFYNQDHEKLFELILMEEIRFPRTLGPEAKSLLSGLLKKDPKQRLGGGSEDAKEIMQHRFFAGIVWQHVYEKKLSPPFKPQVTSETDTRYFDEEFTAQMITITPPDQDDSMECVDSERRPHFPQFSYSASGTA
Experimental: as §1

[3] = target: 140 purified human kinases (Homo sapiens, UniProt Q8N4C8); assay: as above; type: biochemical
Chain of 140 purified human kinases (Homo sapiens, UniProt Q8N4C8) (Q8N4C8 whole entry): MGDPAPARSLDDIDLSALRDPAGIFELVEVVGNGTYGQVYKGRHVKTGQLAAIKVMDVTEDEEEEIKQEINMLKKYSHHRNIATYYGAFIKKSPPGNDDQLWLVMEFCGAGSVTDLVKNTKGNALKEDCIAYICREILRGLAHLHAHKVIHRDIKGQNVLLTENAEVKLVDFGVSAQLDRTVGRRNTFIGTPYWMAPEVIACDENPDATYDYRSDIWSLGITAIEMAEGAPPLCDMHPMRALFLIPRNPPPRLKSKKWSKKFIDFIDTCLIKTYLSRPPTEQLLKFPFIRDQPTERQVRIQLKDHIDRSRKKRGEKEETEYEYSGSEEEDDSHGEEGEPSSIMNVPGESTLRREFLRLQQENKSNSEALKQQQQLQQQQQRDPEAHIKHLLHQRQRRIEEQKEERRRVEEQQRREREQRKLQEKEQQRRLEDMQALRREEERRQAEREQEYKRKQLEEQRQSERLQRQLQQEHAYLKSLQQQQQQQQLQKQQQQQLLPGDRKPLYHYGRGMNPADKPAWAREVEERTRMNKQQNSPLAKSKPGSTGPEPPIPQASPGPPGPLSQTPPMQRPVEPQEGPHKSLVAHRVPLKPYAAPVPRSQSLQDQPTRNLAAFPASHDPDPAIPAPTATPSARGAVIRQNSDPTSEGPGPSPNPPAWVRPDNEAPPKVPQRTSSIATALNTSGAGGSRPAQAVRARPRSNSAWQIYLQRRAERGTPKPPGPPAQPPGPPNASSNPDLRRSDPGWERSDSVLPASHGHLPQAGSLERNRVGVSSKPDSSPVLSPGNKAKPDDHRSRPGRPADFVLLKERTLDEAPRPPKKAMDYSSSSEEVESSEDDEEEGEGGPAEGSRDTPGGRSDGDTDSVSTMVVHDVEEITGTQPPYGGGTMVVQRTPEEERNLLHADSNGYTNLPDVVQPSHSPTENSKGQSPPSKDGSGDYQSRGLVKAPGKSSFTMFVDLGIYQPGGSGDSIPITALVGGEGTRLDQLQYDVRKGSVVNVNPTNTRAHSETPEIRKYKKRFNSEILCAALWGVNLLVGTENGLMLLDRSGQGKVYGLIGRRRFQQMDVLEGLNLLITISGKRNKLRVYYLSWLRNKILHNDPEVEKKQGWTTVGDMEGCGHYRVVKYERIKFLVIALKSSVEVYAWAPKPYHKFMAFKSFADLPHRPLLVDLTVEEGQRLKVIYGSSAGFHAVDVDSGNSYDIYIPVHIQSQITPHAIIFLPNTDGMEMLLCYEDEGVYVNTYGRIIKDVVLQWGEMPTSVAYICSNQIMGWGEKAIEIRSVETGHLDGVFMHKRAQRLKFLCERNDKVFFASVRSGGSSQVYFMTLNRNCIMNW
Experimental: as §1

[4] = target: T1, 140 purified human kinases (Homo sapiens, UniProt P33981); assay: as above; type: biochemical; conditions: TTK
T1 sequence (P33981 1-857): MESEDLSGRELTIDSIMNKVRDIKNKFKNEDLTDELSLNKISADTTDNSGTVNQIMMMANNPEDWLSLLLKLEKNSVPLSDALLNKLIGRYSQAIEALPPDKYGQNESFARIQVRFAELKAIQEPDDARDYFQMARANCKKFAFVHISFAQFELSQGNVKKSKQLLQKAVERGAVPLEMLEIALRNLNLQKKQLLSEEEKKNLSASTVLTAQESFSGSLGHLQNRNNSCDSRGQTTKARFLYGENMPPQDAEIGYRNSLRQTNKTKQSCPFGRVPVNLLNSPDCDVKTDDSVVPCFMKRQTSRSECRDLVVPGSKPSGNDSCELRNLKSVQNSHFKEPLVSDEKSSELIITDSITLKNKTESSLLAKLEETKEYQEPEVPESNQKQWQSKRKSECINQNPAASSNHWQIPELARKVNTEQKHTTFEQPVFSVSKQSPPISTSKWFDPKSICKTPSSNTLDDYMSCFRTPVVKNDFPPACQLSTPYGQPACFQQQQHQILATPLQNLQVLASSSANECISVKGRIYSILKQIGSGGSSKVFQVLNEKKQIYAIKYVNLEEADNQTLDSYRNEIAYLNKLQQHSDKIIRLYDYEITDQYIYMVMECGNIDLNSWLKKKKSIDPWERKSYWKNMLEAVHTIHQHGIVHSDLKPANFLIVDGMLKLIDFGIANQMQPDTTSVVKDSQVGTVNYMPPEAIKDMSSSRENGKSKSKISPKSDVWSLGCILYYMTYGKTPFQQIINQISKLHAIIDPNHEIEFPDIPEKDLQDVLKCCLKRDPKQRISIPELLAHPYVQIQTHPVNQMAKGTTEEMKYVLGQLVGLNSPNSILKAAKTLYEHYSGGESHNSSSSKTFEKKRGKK
Experimental: as §1

[5] = target: 140 purified human kinases (Homo sapiens, UniProt O75716); assay: as above; type: biochemical
Chain of 140 purified human kinases (Homo sapiens, UniProt O75716) (O75716 whole entry): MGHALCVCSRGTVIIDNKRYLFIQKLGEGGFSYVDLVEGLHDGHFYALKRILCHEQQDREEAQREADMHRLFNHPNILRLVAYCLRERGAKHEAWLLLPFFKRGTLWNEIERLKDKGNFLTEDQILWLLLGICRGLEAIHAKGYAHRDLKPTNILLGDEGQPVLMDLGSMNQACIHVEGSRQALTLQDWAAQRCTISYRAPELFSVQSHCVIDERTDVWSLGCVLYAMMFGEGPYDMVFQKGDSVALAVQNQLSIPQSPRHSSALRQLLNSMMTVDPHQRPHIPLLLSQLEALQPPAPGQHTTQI
Experimental: as §1

[6] = target: T2, 140 purified human kinases (Homo sapiens, UniProt O00141); assay: as above; type: biochemical
T2 sequence (O00141 1-431): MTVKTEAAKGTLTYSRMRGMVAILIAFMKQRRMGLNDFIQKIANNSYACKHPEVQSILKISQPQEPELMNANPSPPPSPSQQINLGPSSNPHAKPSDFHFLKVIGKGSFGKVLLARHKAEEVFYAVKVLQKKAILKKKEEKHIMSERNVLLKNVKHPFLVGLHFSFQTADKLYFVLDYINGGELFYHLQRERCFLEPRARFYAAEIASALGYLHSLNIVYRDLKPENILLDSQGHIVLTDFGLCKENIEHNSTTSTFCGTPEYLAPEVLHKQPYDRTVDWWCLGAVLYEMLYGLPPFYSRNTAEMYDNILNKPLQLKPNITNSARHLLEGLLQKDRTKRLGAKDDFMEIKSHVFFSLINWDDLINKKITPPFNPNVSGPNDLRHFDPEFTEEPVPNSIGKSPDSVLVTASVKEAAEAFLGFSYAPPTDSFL
Experimental: as §1

[7] = target: T3, 140 purified human kinases (Homo sapiens, UniProt Q9BXA7); assay: as above; type: biochemical
T3 sequence (Q9BXA7 1-367): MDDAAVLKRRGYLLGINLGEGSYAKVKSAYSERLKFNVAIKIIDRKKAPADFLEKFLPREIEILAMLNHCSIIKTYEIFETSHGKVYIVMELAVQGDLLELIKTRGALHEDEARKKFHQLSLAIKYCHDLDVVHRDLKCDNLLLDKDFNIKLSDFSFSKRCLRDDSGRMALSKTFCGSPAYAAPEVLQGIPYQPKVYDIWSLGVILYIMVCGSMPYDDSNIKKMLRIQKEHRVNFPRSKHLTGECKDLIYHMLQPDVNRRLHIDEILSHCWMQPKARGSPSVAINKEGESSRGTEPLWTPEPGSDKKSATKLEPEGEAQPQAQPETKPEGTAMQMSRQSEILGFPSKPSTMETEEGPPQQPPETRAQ
Experimental: as §1

HCT116 p53+/+ = assay: Confocal imaging of autophagic cells (CYTO-ID); type: cell-based, human; conditions: 3.125 µM, 40 h
Experimental: Cells were seeded in Lumox chamber slides (8-well, Sarstedt) at a density of 1.25 × 10^4 cells/well (ARPE-19) or 5.625 × 10^4 cells/well (HCT116 p53^−/− and HCT116 p53^+/+). 24 h after seeding, cells were treated with 3.125 μM of [L2Cu3]^6+, [L2Zn3]^6+, [L2Mn3]^6+, or vehicle control for 40 h before removal and addition of CYTO-ID Green autophagic dye (1:500 dilution, Enzo Life Sciences) and Hoechst 3342 nuclear counter stain for 30 min at 37 °C. Media was then replaced before imaging using a Zeiss LSM880 confocal laser scanning microscope.

## [Cu+2].[Cu+2].[Cu+2].c1ccc(-c2csc(NCCN(CCNc3nc(-c4ccccn4)cs3)CCNc3nc(-c4ccccn4)cs3)n2)nc1.c1ccc(-c2csc(NCCN(CCNc3nc(-c4ccccn4)cs3)CCNc3nc(-c4ccccn4)cs3)n2)nc1 [[L2Cu3]6+]
[1]
  % Inhibition Run 1: 45.4%
  % Inhibition Run 2: 66.7%
  % Inhibition, Mean: 56%
  mean % activity: 44%
[1]; Run 1
  % activity: 54.6%
[1]; Run 2
  % activity: 33.3%
[2]
  % Inhibition Run 1: 72.1%
  % Inhibition Run 2: 76%
  % Inhibition, Mean: 74%
  mean % activity: 26%
[2]; Run 1
  % activity: 27.9%
[2]; Run 2
  % activity: 24%
[3]; MINK1
  % Inhibition Run 1: 70%
  % Inhibition Run 2: 78.2%
  % Inhibition, Mean: 74%
  mean % activity: 26%
[3]; MINK1, Run 1
  % activity: 30%
[3]; MINK1, Run 2
  % activity: 21.8%
[4]
  % Inhibition Run 1: 41.9%
  % Inhibition Run 2: 45.5%
  % Inhibition, Mean: 44%
  mean % activity: 56%
[4]; Run 1
  % activity: 58.1%
[4]; Run 2
  % activity: 54.5%
[5]; MPSK1
  % Inhibition Run 1: 71.3%
  % Inhibition Run 2: 60%
  % Inhibition, Mean: 66%
  mean % activity: 34%
[5]; MPSK1, Run 1
  % activity: 28.7%
[5]; MPSK1, Run 2
  % activity: 40%
[6]; SGK1
  % Inhibition Run 1: 85.6%
  % Inhibition Run 2: 88.5%
  % Inhibition, Mean: 87%
  mean % activity: 13%
[6]; SGK1, Run 1
  % activity: 14.4%
[6]; SGK1, Run 2
  % activity: 11.5%
[7]; TSSK1
  % Inhibition Run 1: 44%
  % Inhibition Run 2: 46.8%
  % Inhibition, Mean: 45%
  mean % activity: 55%
[7]; TSSK1, Run 1
  % activity: 56%
[7]; TSSK1, Run 2
  % activity: 53.2%

## [Mn+2].[Mn+2].[Mn+2].c1ccc(-c2csc(NCCN(CCNc3nc(-c4ccccn4)cs3)CCNc3nc(-c4ccccn4)cs3)n2)nc1.c1ccc(-c2csc(NCCN(CCNc3nc(-c4ccccn4)cs3)CCNc3nc(-c4ccccn4)cs3)n2)nc1 [[L2Mn3]6+]
HCT116 p53+/+
  induction of autophagy (CYTO-ID): evident

## CC(=O)[O-].CC(=O)[O-].CC(=O)[O-].CC(=O)[O-].CC(=O)[O-].CC(=O)[O-].[Zn+2].[Zn+2].[Zn+2].c1ccc(-c2csc(NCCN(CCNc3nc(-c4ccccn4)cs3)CCNc3nc(-c4ccccn4)cs3)n2)nc1.c1ccc(-c2csc(NCCN(CCNc3nc(-c4ccccn4)cs3)CCNc3nc(-c4ccccn4)cs3)n2)nc1 [[L2Zn3]6+]
[1]
  % Inhibition, Mean: 42%
  % Inhibition, Run 1 / Run 2: 45% and 40%
  mean % activity: 58%
[1]; duplicate runs
  % activity: 56% and 60%
[2]
  % Inhibition, Mean: 17%
  mean % activity: 83%
[2]; duplicate runs
  % activity: 68% and 99%
[3]; MINK1
  % Inhibition, Mean: 67%
  % Inhibition, Run 1 / Run 2: 72% and 62%
  mean % activity: 33%
[3]; MINK1, duplicate runs
  % activity: 28% and 38%
[4]
  % Inhibition, Mean: 33%
  % Inhibition, Run 1 / Run 2: 37% and 28%
  mean % activity: 67%
[4]; duplicate runs
  % activity: 63% and 72%
[5]; MPSK1
  % Inhibition, Mean: 22%
  mean % activity: 79%
[5]; MPSK1, duplicate runs
  % activity: 71% and 86%
[6]; SGK1
  % Inhibition, Mean: 37%
  % Inhibition, Run 1 / Run 2: 43% and 32%
  mean % activity: 63%
[6]; SGK1, duplicate runs
  % activity: 57% and 68%
[7]; TSSK1
  % Inhibition, Mean: 27%
  % Inhibition, Run 1 / Run 2: 29% and 24%
  mean % activity: 73%
[7]; TSSK1, duplicate runs
  % activity: 71% and 76%
HCT116 p53+/+
  induction of autophagy (CYTO-ID): barely detectable

Source: publication PMC8222254, “Self-assembly of an anion receptor with metal-dependent kinase inhibition and potent in vitro anti-cancer properties” (Nature Communications, 2021)
